Several values for one entry are separate records, joined by “and”; a condition that tells them apart may be missing. Equal values may be shown once.
Tests used:
Format in all cases: biochemical
[1] = target: T1, prostaglandin-15-dehydrogenase (Homo sapiens, UniProt P15428); test: Inhibition of prostaglandin F2α inactivation in cell-free human placenta preparation; conditions: for IC50: Inhibition 50 %, read-out: concentration giving 50% inhibition of the prostaglandin inactivation (converted)
T1 construct: cellfree preparations of different organs (containing prostaglandin-15-dehydrogenase); from tissue; host or cells: human placenta
T1 sequence (P15428 1-266): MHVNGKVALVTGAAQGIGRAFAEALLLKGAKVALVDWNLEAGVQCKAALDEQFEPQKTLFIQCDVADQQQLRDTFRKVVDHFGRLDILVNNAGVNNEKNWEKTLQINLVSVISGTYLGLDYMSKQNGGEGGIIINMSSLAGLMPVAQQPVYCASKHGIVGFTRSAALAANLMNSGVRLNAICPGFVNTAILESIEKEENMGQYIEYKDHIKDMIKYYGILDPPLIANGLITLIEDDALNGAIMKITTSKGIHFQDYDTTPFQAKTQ
Protocol: (§1) Radioactive prostaglandin F2α was incubated with cellfree preparations of different organs (containing prostaglandin-15-dehydrogenase) according to Hoult and Moore, British Journal of Pharmacology, Vol. 61 (1977), p. 615. After a suitable time the prostaglandins were extracted and separated by chromatography. Then the amount of remaining prostaglandin F2α was compared with the amounts of metabolites. The inhibiting effect was obtained by the addition of the compounds according to the invention during the incubation and comparison with control experiments without such addition. The results may be represented either as a concentration giving 50% inhibition of the prostaglandin inactivation, or as an inhibition in percent at a certain concentration of the studied compound. In the following table the results for some compounds according to the invention are shown compared to the known drug sulfasalazine.

[2] = target: T2, prostaglandin-15-dehydrogenase (Rattus norvegicus, UniProt O08699); test: Inhibition of prostaglandin F2α inactivation in cell-free rat organ preparations; conditions: for inhibition at 50 µM: 50 μM (A 19,9 μg/ml; C 12,8 μg/ml); for inhibition at 2 µM: 2 μM (0,82 μg/ml)
T2 construct: cellfree preparations of different organs (containing prostaglandin-15-dehydrogenase); from tissue
T2 sequence (O08699 1-266): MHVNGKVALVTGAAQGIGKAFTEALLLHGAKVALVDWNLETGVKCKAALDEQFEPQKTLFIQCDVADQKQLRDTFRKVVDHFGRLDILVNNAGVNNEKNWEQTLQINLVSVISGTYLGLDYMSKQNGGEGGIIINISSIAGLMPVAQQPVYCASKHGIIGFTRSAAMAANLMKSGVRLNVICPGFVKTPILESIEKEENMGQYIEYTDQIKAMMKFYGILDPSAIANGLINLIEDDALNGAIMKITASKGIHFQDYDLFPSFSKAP
Protocol: as §1

[3] = target: T3, prostaglandin-15-dehydrogenase (Cavia porcellus, UniProt P70684); test: Inhibition of prostaglandin F2α inactivation in cell-free guinea pig organ preparations; conditions: for inhibition at 2 µM: 2 μM (0,82 μg/ml); for inhibition at 50 µM: 50 μM (B 20,6 μg/ml; C 12,8 μg/ml)
T3 construct: cellfree preparations of different organs (containing prostaglandin-15-dehydrogenase); from tissue
T3 sequence (P70684 1-265): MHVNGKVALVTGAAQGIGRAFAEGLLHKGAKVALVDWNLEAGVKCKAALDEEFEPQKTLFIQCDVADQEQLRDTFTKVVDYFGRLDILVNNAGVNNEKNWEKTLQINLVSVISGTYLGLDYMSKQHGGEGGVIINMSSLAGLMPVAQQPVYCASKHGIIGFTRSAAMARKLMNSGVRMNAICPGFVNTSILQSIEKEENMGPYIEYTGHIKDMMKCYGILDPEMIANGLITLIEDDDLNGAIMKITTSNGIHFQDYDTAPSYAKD
Protocol: as §1

[4] = relative to compound A (sulfasalazine)

IC50 ([1]; Human placenta) | inhibition at 50 µM ([2]; Rat colon) [%] | inhibition at 2 µM ([3]; Guinea pig colon) [%] | inhibition at 2 µM ([3]; Guinea pig duodenum) [%] | inhibition at 2 µM ([3]; Guinea pig kidney) [%] | inhibition at 50 µM ([3]; Guinea pig kidney) [%] | inhibition at 50 µM ([1]; Human placenta, 50 μM (20,6 μg/ml)) [%] | times as active as the known compound A [1, 4] [times] | inhibition at 2 µM ([2]; Rat colon) [%] | inhibition at 2 µM ([2]; Rat kidney) [%] | inhibition at 2 µM ([2]; Rat lung) [%] | inhibition at 2 µM ([2]; Rat stomach) [%] | Compound | activity compared with compound A [2, 4]
95 µM and 95.4 µM | 47.8 | – | – | – | – | – | – | – | – | – | – | O=C(O)c1cc(/N=N/c2ccc(S(=O)(=O)Nc3ccccn3)cc2)ccc1O [A, sulfasalazine, reference compound] | –
1.9 µM and 1.89 µM | – | 58.7 | 68.3 | 53.8 | 65.9 | 87.5 | 50 | 53.3 | 94.1 | 85.2 | 67.2 | O=C(O)Cc1cc(N=Nc2ccc(S(=O)(=O)Nc3ccccn3)cc2)ccc1O [B, 2-hydroxy-5-[4-[[(2-pyridinyl)amino]sulfonyl]phenylazo]benzeneacetic acid] | –
– | 71.3 | – | – | – | 45.4 | – | – | – | – | – | – | O=C(O)Cc1cc(N=Nc2ccccc2)ccc1O [C, 2-hydroxy-5-phenylazo-benzeneacetic acid] | significantly more active than compound A
